Measurements reported in patent US12329727B2, “Use of salmeterol as an anti-coronaviral agent” (priority 2020, dated 2025).
Read-outs that look alike come from different tables or passages of the source.

Assays:
ciliary beat frequency = conditions: cited from earlier work
MERS-pseudovirus = assay type: cell-based, MERS-COV; Huh7 cells
mast cell degranulation = conditions: human lung; cited from earlier work
SARS-CoV-2 pseudovirus = assay type: cell-based, SARS-CoV-2; HEK293 cells expressing ACE2
[1] = system: NAADP-evoked Ca2+ release (TPC activity); assay type: biochemical, sea urchin

Which ciliary beat frequency (ciliary beat frequency) does the source give for `OCc1cc(C(O)CNCCCCCCOCCCCc2ccccc2)ccc1O` (racemic) [salmeterol, (RS)-2-(hydroxymethyl)-4-{1-hydroxy-2-[6-(4-phenylbutoxy)hexylamino]ethyl}phenol] here?
The ciliary beat frequency was “rapid and prolonged increase”.

What about the “inhibition of MERS-COV infectivity in a pseudovirus translocation assay” value (MERS-pseudovirus) of the same molecule?
The value was “potent and penetrant”.

What about the mast cell degranulation (mast cell degranulation) of the same molecule?
Its mast cell degranulation is “potent and long-lasting inhibition”.

What about the “inhibition of SARS-CoV-2 pseudovirus infectivity” value (SARS-CoV-2 pseudovirus; 10 μM) of the same molecule?
Its value is “pronounced inhibition”.

What about the “inhibition of TPC activity” value [1] of the same molecule?
Its value is “able to inhibit”.

What about the “rank for TPC inhibition (amplitude of NAADP-evoked Ca2+ release, rank #1 = greatest inhibition)” value [1] of the same molecule?
Its value is 16/1534.

For `NCCOB(c1ccccc1)c1ccccc1` [2-APB], which “inhibition of SARS-CoV-2 pseudovirus infectivity” value (SARS-CoV-2 pseudovirus; 10 μM) is on record?
Its value is “no effect”.

Which “inhibition of SARS-CoV-2 pseudovirus infectivity” value (SARS-CoV-2 pseudovirus) does the source give for `CC(=O)OCOC(=O)CN(CC(=O)OCOC(C)=O)c1ccccc1OCCOc1ccccc1N(CC(=O)OCOC(C)=O)CC(=O)OCOC(C)=O` [BAPTA-AM] here?
The value was “nearly complete inhibition”.

With ryanodine as the molecule, how does the “inhibition of SARS-CoV-2 pseudovirus infectivity” value (SARS-CoV-2 pseudovirus; 10 μM) read?
Its value is “no effect”.

For xestospongin, which “inhibition of SARS-CoV-2 pseudovirus infectivity” value (SARS-CoV-2 pseudovirus; 10 μM) is on record?
The value was “no effect”.
